In patent publication US4056520A (Research Corporation, priority 1975, dated 1977):

System: pituitary dwarf
Test: Metabolic studies in a pituitary dwarf (human growth hormone-like activity)
Type: in vivo
Details: same pituitary dwarf
Experimental: There was also observed an increase in urinary calcium. […] This fraction in accordance with this invention evidencing clinical activity was administered by injection into the pituitary dwarf.
In the treatment of the pituitary dwarf mentioned hereinabove with the active A-II fraction, the treatment involved metabolic studies. The pituitary dwarf received 5 milligrams of the A-II fraction dissolved in water twice a day intramuscularly for five days. The active A-II fraction could just as well been given intravenously although one would predict that the effects would be more prolonged with intramuscular injection. It would appear unlikely that the A-II fraction, being a peptide, could efficiently be given orally since it would be digested in the gastrointestinal tract.

## human growth hormone: human growth hormone given to the same pituitary dwarf for comparison
  responses compared with the A-II fraction: qualitatively the same although the human growth hormone was more effective
